# Test results taken from patent publication US4602017A, “Substituted aromatic compounds” (priority 1979, dated 1986).
# Read-outs that look alike come from different tables or passages of the source.
# What was measured:
# [1] = anticonvulsant activity, standard maximal electroshock test (MES); assay type: in vivo, mice; conditions: Mus musculus, po, read-out: ED50, MES
# Experimental: The anticonvulsant activity of certain compounds of the present invention was determined by a standard maximal electroshock test, that described by L. A. Woodbury and V. D. Davenport, Arch. Int. Pharmacodyn.: 1952, 92, 97.
# [2] = cited from earlier work; for toxicity: J. Med. Chem., 1972 15, 859
# Plasmodium berghei = Plasmodium berghei in mice; Rees et al, J. Med. Chem., 1972 15, 859; cited from earlier work
# [3] = Rosenberg and Bottiroli, Proc. Soc. Exp. Biol. 1964; cited from earlier work
# LD50 in rats, p.o. = conditions: rat, in vivo, po, dose for which 50% of the animals survive 10 days after administration
# Experimental: (§1) The LD50's (expressed in mg/kg, p.o.) of 3,5-diamino-6-(2,3-dichlorophenyl)-1,2,4-triazine and 3,5-diamino-6-(2,5-dichlorophenyl)-1,2,4,-triazine were determined in mice and rats. The LD50 described is the dose for which 50% of the animals survive 10 days after administration of the compound.
# LD50 in mice, p.o. = conditions: mouse, in vivo, po, dose for which 50% of the animals survive 10 days after administration
# Experimental: as §1
# [4] = mice, p.o., maximal electroshock, Table 3
# [5] = mice, p.o., maximal electroshock, Table 4 (naphthyl compounds)
smiles,measurement,setting,value
"Nc1nnc(-c2cc(Cl)ccc2Br)c(N)n1 [2-Br, 5-Cl NH2, 3,5-diamino-6-(2-5-chlorophenyl)-1,2,4-triazine]",ED50,[1]; [4],4.6 mg/kg
"Cc1ccc2ccccc2c1-c1nnc(N)nc1N [2-Me, 3,5-diamino-6-(2-methyl-1-naphthyl)-1,2,4-triazine]",ED50,[1]; [5],16.5 mg/kg
"Nc1nnc(-c2ccccc2Br)c(N)n1 [2-Br NH2, 3,5-diamino-6-(2-bromophenyl)-1,2,4-triazine]",ED50,[1]; [4],8.5 mg/kg
"Nc1nnc(-c2ccccc2I)c(N)n1 [2-I NH2, 3,5-diamino-6-(2-iodophenyl)-1,2,4-triazine]",ED50,[1]; [4],11.8 mg/kg
"Nc1nnc(-c2cc(Cl)cc(Cl)c2Cl)c(N)n1 [2,3,5-Cl3 NH2, 3,5-diamino-6-(2,3,5-trichlorophenyl)-1,2,4-triazine]",ED50,[1]; [4],0.65 mg/kg
"Nc1nnc(-c2cc(Cl)cc3ccccc23)c(N)n1 [3-Cl, 3,5-diamino-6-(3-chloro-1-naphthyl)-1,2,4-triazine]",ED50,[1]; [5],6.5 mg/kg
Nc1nnc(-c2ccc(Cl)cc2)c(N)n1 [4-chlorophenyl],toxicity,[2]; Rees et al,toxic at curative doses
same,therapeutic ratio,"[2]; malaria, Rees et al",low therapeutic ratio
same,antimalarial activity,Plasmodium berghei,active against the malaria organism Plasmodium berghei in mice
"Nc1nnc(-c2cccc3ccccc23)c(N)n1 [H, 3,5-diamino-6-(1-naphthyl)-1,2,4-triazine]",ED50,[1]; [5],2.9 mg/kg
"Nc1nnc(-c2c(F)cccc2Cl)c(N)n1 [2-Cl, 6-F NH2, 3,5-diamino-6-(2-chloro-6-fluorophenyl)-1,2,4-triazine]",ED50,[1]; [4],12.2 mg/kg
"CN(C)C=Nc1nc(N)nnc1-c1cccc(Cl)c1Cl.O=C(O)C(=O)O [2,3-Cl2 NCHNMe2, 3-amino-6-(2,3-dichlorophenyl)-5-dimethylaminomethyleneamino-1,2,4-triazine oxalate]",ED50,[1]; [4],5 mg/kg
"CC(=O)Nc1nc(N)nnc1-c1cccc(Cl)c1Cl [2,3-Cl2 NHCOCH3, 5-acetamido-3-amino-6-(2,3-dichlorophenyl)-1,2,4-triazine]",ED50,[1]; [4],5 mg/kg
"Nc1nnc(-c2ccc(Br)cc2Cl)c(N)n1 [2-Cl, 4-Br NH2, 3,5-diamino-6-(4-bromo-2-chlorophenyl)-1,2,4-triazine]",ED50,[1]; [4],12.8 mg/kg
Nc1nnc(-c2ccc(C(F)(F)F)cc2)c(N)n1 [4-trifluoromethylphenyl],toxicity,[2]; Rees et al,less toxic than the chlorophenyl compounds
same,antimalarial activity,Plasmodium berghei,still being active against malaria
CCN(CCO)CCCC(C)Nc1ccnc2cc(Cl)ccc12 (stereo not drawn) [hydroxychloroquine],anticonvulsant activity profile,[3],favourable activity profile
"Nc1nnc(-c2ccc(Cl)cc2Cl)c(N)n1 [2,4-dichlorophenyl]",antimalarial activity,Plasmodium berghei,only slight antimalarial activity
"Nc1nnc(-c2cccc(Cl)c2Cl)c(N)n1 [2,3-Cl2 NH2, 3,5-diamino-6-(2,3-dichlorophenyl)-1,2,4-triazine]",LD50 at 240 h,"LD50 in rats, p.o.",> 640 mg/kg
same,LD50 at 240 h,"LD50 in mice, p.o.",250 mg/kg
same,ED50,[1],2.4 mg/kg
"Nc1nnc(-c2cc(Br)ccc2Cl)c(N)n1 [2-Cl, 5-Br NH2, 3,5-diamino-6-(5-bromo-2-chlorophenyl)-1,2,4-triazine]",ED50,[1]; [4],6 mg/kg
"Cc1ccccc1-c1nnc(N)nc1N [2-Me NH2, 3,5-diamino-6-(2-methylphenyl)-1,2,4-triazine]",ED50,[1]; [4],15 mg/kg
"Nc1nnc(-c2ccccc2C(F)(F)F)c(N)n1 [2-CF3 NH2, 3,5-diamino-6-(2-trifluoromethylphenyl)-1,2,4-triazine]",ED50,[1]; [4],20 mg/kg
"Nc1nnc(-c2cc(Cl)ccc2Cl)c(N)n1 [2,5-Cl2 NH2, 3,5-diamino-6-(2,5-dichlorophenyl)-1,2,4-triazine]",LD50 at 240 h,"LD50 in rats, p.o.",> 640 mg/kg
same,LD50 at 240 h,"LD50 in mice, p.o.",708 mg/kg
same,ED50,[1]; [4],3.3 mg/kg
"Nc1nnc(-c2ccc(Cl)c(Cl)c2)c(N)n1 [3,4-dichlorophenyl]",toxicity,[2]; Rees et al,toxic at curative doses
same,therapeutic ratio,"[2]; mouse, in vivo",low therapeutic ratio
same,antimalarial activity,Plasmodium berghei,active against the malaria organism Plasmodium berghei in mice
